Patent US5395842A, “Anti-estrogenic compounds and compositions” (Endorecherche Inc., priority 1991, dated 1995)

Columns and labels:
[1] = tested on: 17β-hydroxysteroid dehydrogenase; details: Thomas et al., 1983; cited from earlier work
[2] = tested on: uterine weight in adult female ovariectomized Balb/c mice; assay: inhibition of the estradiol-induced stimulation of uterine weight in adult female ovariectomized Balb/c mice; format: in vivo
Protocol: (§1) EM-142, and/or estradiol contained in ethanol were injected subcutaneously in the appropriate groups in a solution of 0.9% (w/v) sodium chloride and 1% (w/v) gelatin at different concentrations in 0.2 ml for EM-142, twice daily, starting on the day of ovariectomy for a total of 9 injections. Estradiol was injected at the dose of 0.01 μg in 0.2 ml, twice daily, starting on the morning after ovariectomy for a total of 8 injections.
After sacrifice, the uteri were rapidly removed, freed from fat and connective tissue and weighted. Results shown in FIG. 2 are the means±SEM of groups of 9-10 mice.
as §1, with “"EM 139", and/or” for “EM-142, and/or”, “estradiol dissolved” for “estradiol contained”, “concentrations of "EM 139" (as noted along the X axis of FIG. 3). A dosage of” for “concentrations in”, “ml of the foregoing preparation, was administered” for “ml for EM-142,”
After sacrifice, the uteri were rapidly removed, freed from fat and connective tissue and weighed. Results shown in FIG. 3 are the means±SEM of groups of 9-10 mice.

[3] = tested on: 17β-hydroxysteroid dehydrogenase (17β-HSD); assay: inhibition of 17β-HSD catalyzed conversion of estradiol to estrone (NADH formation at 340 nm); format: biochemical, human; details: increasing concentrations; 1 μg 17β-HSD, 5 mM NAD, 20 μM 17β-estradiol, pH 7.5, 25° C., 15 min; FIG. 4
Text: To test the effect of "EM 139" on the inhibition of sex steroid formation, its effect on the 17β-hydroxysteroid dehydrogenase catalyzed conversion of estradiol to estrone was observed. The reaction was followed by monitoring formation of NADH (at 340 nm). The rate of conversion of cofactor NAD to NADH varies directly with the rate of estradiol conversion to estrone. The ability of "EM 139" to inhibit estrone production is indicative of its ability to inhibit the estrogen-forming reverse reaction because both reactions are catalyzed by 17β-hydroxysteroid dehydrogenase (Thomas et al., J. Biol. Chem. 258: 11500-11504, 1983). 17β-hydroxysteroid dehydrogenase (17β-HSD) was purified to homogeneity from human placenta. A reaction vessel was prepared containing 1 μg 17β-HSD, 5 mM NAD, 20 μM 17β-estradiol, and the concentrations of the test compound "EM 139" which are indicated along the X-axis of FIG. 4 in 1.0 ml of a mixture of Tris-HCl (50 mM), EDTA (2 mM), NaN3 (5 mM). The pH was 7.5. The reaction was allowed to proceed at 25° C. for 15 min. Formation of NADH was measured at 340 nm.

[4] = tested on: rat uterine cytosol estrogen receptor; assay: competition binding on the rat uterine cytosol estrogen receptor with [3H] estradiol; details: 25° C., FIG. 1
Protocol: J. Endocrinol. 112: R7-R110) and EM-142 (an antiestrogen having a nonsteroidal nucleus and synthesized in example 1, herein) for the rat uterine cytosol receptor ([…] et al., 1978; J. Steroid Biochem. 9: 1079-1082). EM-142 from example 1 was tested by competition binding on the rat uterine cytosol estrogen receptor with [^3 H] estradiol according to […] et al. (1976) prodecure. […] (incubation was performed at 25° C. for 3 hours).

[5] = tested on: ZR-75-1 human breast cancer cell line; assay: growth of ZR-75-1 human breast cancer cells; format: cell-based; details: for IC50: Homo sapiens, 240 h, 10 days, read-out: half-maximal effectiveness / IC50 on growth of ZR-75-1 cells
Protocol: ZR-75-1 cells (83rd passage) were obtained from the American Type Culture Collection (Rockville, Md.) and routinely cultured in phenol-red free RPMI 1640 supplemented with 1 nM E2, 2 mM L-glutamine, 1 mM sodium pyruvate, 15 mM N-2-hydroxyethyl-piperazine-N'-2-ethanesulfonic acid, 100 IU penicillin/ml, 100 μg streptomycin/ml, and 10% (v/v) fetal bovine serum (Hyclone, Logan, UT) under a humidified atmosphere of 95% air, 5% CO2, at 37° C. All media and medium supplements were purchased from Sigma. Cells were subcultured weekly by treatment with a pancreatic solution containing 0.02% EDTA (w/v). The cell cultures used for the experiments herein described were between passages 89 and 94.
Cells in their logarithmic growth phase were harvested, briefly centrifuged, and resuspended in RPMI 1640. Cells were then plated in triplicate in LIMBRO 24-well plastic culture plates (2 cm^2 /well). Since plating density influences the effect of hormones on ZR-75-1 cell growth, cells were plated at a density of 1×10^4 cells/well. After 72 h, medium was replaced with fresh medium of identical composition containing, in addition, the concentrations of steroids and/or inhibitors (e.g. EM 312 or EM 343) indicated along the X-axis of FIG. 5. Control cultures received the ethanol vehicle only. Cells were then allowed to grow at 37° C. for 10 days with medium changes (of identical composition) every 2 days. In absence of inhibitors, in 0.1 nM estradiol (E2)-containing medium, ZR-75-1 cells have doubling time of about 48 h.
After E2 and/or antiestrogen treatment, cells were harvested by addition of 0.5 ml of a pancreatin solution (Sigma) for 5-10 min at 37° C. before addition of 0.5 ml of RPMI 1640 containing 5% dextran-coated charcoal-fetal bovine serum in order to block enzymatic action. Cell number (0.10-ml aliquot) was determined by measurement of DNA content as previously described (Simard et al., Endocrinology 126: 3223-3231, 1990).

[6] = reported by Saeed et al. and Sharma et al., 1990; cited from earlier work
[7] = tested on: advanced breast cancer; details: H. Mouridsen et al., 1978; cited from earlier work

C=C1C[C@H]2[C@@H]3CCc4cc(O)ccc4[C@H]3CC[C@]2(C)[C@H]1O [16-methylene estradiol]
inhibition of 17β-hydroxysteroid dehydrogenase activity (in words) [1]: inhibitors of 17β-hydroxysteroid dehydrogenase activity

C=C1C[C@H]2[C@@H]3CCc4cc(O)ccc4[C@H]3CC[C@]2(C)C1=O [16-methylene estrone]
inhibition of 17β-hydroxysteroid dehydrogenase activity (in words) [1]: inhibitors of 17β-hydroxysteroid dehydrogenase activity

CCCCN(C)C(=O)CCCCCCCCCC[C@@H]1Cc2cc(O)ccc2[C@H]2CC[C@]3(C)[C@@H](O)[C@H](Cl)C[C@H]3[C@H]12 [EM 139, N-n-butyl-N-methyl-11-(16'α-chloro-3',17'β-dihydroxy-estra-1',3',5'(10') -trien-7' α-yl) undecanamide]
reduction of estradiol-induced uterine weight gain (in words) ([2]; s.c., twice daily, 9 injections, FIG. 3): highly effective in reducing estradiol-induced uterine weight gain
inhibition of 17β-HSD reaction (in words) [3]: significantly inhibited the reaction

CCCCN(C)C(=O)CCCCCCCCCCC(=C(CC)c1ccc(O)cc1)c1ccc(O)cc1 [EM 142, N-butyl, N-methyl-12,13-Bis(4-hydroxyphenyl)-12-pentadecenoic amide]
binding potency compared with the antiestrogen ICI 164384 (in words) [4]: more potent
times less potent than 17β-estradiol [4]: 3 times
inhibitory effect on E2-induced uterine growth (in words) ([2]; 0.3 μg, s.c., twice daily, estradiol 0.01 μg, FIG. 2): significant inhibitory effect
reversal of estrogenic action on uterine weight (in words) ([2]; 20 μg, s.c., twice daily, estradiol 0.01 μg, FIG. 2): complete reversal of estrogenic action
estrogenic effect on uterine weight (in words) ([2]; EM-142, agonism on uterine weight): no estrogenic effect on uterine weight

Oc1ccc(C2=Cc3ccc(O)cc3OC2c2ccc(OCCN3CCCCC3)cc2)cc1 (stereo not shown) [EM 312]
IC50 ([5]; ZR-75-1 cells, FIG. 5): 0.843 nM
fold by which IC50 is higher than that of EM 343 ([5]; ZR-75-1 cells, relative to EM 343, FIG. 5): 3 -fold
comparative effect on growth of ZR-75-1 cells vs EM 343 (in words) ([5]; comparative testing in the applicant's laboratory): underperformed EM 343
antiestrogenic activity (in words) [6]: antiestrogenic activity

CC1=C(c2ccc(O)cc2)C(c2ccc(OCCN3CCCCC3)cc2)Oc2cc(O)ccc21 (stereo not shown) [EM 343]
IC50 ([5]; ZR-75-1 cells, FIG. 5): 0.255 nM
cell growth inhibition (in words) ([5]; ZR-75-1 cells, low concentration, FIG. 5): extensive cell growth inhibition

CC/C(=C(\c1ccccc1)c1ccc(OCCN(C)C)cc1)c1ccccc1 [Tamoxifen]
women patients with remission of advanced breast cancer [7]: about 30%
